US9675549B2, “Tablet containing composite with cyclodextrin” (AMBIT BIOSCIENCES CORPORATION, priority 2012, dated 2017)

Experiment: Examination of molecular state of AC220 in aqueous solution (1H chemical shift displacements, NOESY)
Format: physicochemical
Method: The molecular state of AC220 in the aqueous solution was examined. […] The protons of d and e could not be analyzed due to the overlapping with other proton signals.
Furthermore, the Hill coefficient was calculated from the analysis of the ^1H chemical shift displacements: the value was greater than 1, and indicated a network formation. It was confirmed that the addition of methanol to the AC220 aqueous solution inhibited the gel formation, and that the network was formed by intermolecular hydrogen bonding.

## CC(C)(C)c1cc(NC(=O)Nc2ccc(-c3cn4c(n3)sc3cc(OCCN5CCOCC5)ccc34)cc2)no1 [AC220, N-(5-tert-butyl-isoxazol-3-yl)-N′-{4-[7-(2-morpholin-4-yl-ethoxy)imidazo[2,1-b][1,3]benzothiazol-2-yl]phenyl}urea]
Calculated from 1H chemical shift displacements of AC220 aqueous solutions, indicates network formation
  Hill coefficient: greater than 1
Gelation of the aqueous solution with increasing concentration
  Solubility in water: soluble
